Molecular target: T1, SMARCA2 (Homo sapiens, UniProt P51531)
T1 construct: endogenous in cells; host or cells: HT1080 (CRISPR HiBiT knock-in clone, generated in house)
Assay: SMARCA2 HiBiT degradation assay (cellular)
Format: cell-based
Settings: table head names A549; for DC50: 6 h incubation, HiBiT-tagged SMARCA2, luminescence read-out, read-out: HiBit A549 SMARCA2 IP (nM) 6 h; for Emax: A549, 6 h incubation, Emax = amount of residual protein remaining in the cell following compound treatment

T1 sequence (P51531 whole entry): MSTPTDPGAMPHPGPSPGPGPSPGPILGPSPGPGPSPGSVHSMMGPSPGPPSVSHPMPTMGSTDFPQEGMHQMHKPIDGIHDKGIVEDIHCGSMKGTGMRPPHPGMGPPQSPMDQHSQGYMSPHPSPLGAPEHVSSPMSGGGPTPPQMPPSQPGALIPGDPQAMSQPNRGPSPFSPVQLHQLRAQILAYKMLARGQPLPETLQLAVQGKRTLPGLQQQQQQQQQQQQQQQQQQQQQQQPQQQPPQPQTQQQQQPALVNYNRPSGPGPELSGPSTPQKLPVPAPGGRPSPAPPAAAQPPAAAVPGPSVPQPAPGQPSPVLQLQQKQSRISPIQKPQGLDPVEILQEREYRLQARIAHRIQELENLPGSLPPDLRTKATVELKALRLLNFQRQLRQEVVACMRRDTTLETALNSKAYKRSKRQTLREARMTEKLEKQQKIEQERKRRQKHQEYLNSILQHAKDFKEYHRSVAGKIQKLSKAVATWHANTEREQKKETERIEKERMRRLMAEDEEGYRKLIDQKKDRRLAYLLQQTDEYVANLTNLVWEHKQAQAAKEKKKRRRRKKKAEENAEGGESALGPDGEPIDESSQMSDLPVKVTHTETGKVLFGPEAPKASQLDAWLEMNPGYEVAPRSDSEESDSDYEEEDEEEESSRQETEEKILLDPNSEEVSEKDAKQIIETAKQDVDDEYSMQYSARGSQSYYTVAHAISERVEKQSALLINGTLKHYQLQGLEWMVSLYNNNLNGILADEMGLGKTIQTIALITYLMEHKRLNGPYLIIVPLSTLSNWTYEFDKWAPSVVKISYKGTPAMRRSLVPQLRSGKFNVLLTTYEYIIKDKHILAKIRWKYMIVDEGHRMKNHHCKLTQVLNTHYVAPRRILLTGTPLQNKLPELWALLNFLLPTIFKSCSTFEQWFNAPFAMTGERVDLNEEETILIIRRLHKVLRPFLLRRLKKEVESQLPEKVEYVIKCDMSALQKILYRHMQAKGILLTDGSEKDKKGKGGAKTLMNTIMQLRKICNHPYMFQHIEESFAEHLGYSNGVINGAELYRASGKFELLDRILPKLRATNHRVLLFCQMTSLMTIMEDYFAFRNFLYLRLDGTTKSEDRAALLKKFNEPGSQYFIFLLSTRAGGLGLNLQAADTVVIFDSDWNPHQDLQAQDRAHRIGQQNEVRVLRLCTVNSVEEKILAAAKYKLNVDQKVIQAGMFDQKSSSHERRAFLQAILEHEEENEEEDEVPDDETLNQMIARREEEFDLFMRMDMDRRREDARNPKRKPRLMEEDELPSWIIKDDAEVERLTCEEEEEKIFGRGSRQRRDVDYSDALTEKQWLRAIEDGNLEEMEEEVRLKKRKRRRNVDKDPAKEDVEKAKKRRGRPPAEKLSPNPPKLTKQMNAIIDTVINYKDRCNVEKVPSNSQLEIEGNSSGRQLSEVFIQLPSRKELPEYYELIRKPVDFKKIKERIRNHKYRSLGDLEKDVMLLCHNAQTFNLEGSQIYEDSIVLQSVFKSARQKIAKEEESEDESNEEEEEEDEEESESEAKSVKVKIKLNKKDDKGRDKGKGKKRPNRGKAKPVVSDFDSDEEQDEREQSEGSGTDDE

| DC50 | Emax | Structure (SMILES) |
| --- | --- | --- |
| 678 nM | 42% | Nc1nnc(-c2ccccc2O)cc1OC1CCCN(c2ccc(N3CCN(CCCCC(=O)N4CCC(n5cc(COc6cccc7c6C(=O)N(C6CCC(=O)NC6=O)C7=O)nn5)CC4)CC3)cc2)C1 (racemic) [Example 138, 2-(2,6-dioxo-3-piperidyl)-4-[[1-[1-[5-[4-[4-[rac-(3S)-3-[3-amino-6-(2-hydroxyphenyl)pyridazin-4-yl]oxy-1-piperidyl]phenyl]piperazin-1-yl]pentanoyl]-4-piperidyl]triazol-4-yl]methoxy]isoindoline-1,3-dione] |
| 22 nM | 29% | Nc1nnc(-c2ccccc2O)cc1N1CCC(C(=O)N2CC3(CCN(CC4CCN(c5ccc6c(c5)C(=O)N(C5CCC(=O)NC5=O)C6=O)CC4)C3)C2)(c2ccccc2)CC1 (centres unmarked) [Example 190, 5-(4-((2-(1-(3-amino-6-(2-hydroxyphenyl)pyridazin-4-yl)-4-phenylpiperidine-4-carbonyl)-2,6-diazaspiro[3.4]octan-6-yl)methyl)piperidin-1-yl)-2-(2,6-dioxopiperidin-3-yl)isoindoline-1,3-dione] |
| 59 nM | 27% | Nc1nnc(-c2ccccc2O)cc1O[C@@H]1CCCN(c2ccc(N3CCN(CCCCCCCCCn4cc(CNc5cccc6c5C(=O)N(C5CCC(=O)NC5=O)C6=O)nn4)CC3)cc2)C1 (stereo partly drawn) [Example 63, 4-[[1-[9-[4-[4-[(3R)-3-[3-amino-6-(2-hydroxyphenyl)pyridazin-4-yl]oxy-1-piperidyl]phenyl]piperazin-1-yl]nonyl]triazol-4-yl]methylamino]-2-(2,6-dioxo-3-piperidyl)isoindoline-1,3-dione] |
| 495 nM | 45% | Nc1nnc(-c2ccccc2O)cc1OC1CCCN(c2ccc(N3CCN(CCCCCCCCCc4ccc(CNc5cccc6c5C(=O)N(C5CCC(=O)NC5=O)C6=O)nc4)CC3)cc2)C1 (centres unmarked) [Example 136, 4-[[5-[9-[4-[4-[3-[3-amino-6-(2-hydroxyphenyl)pyridazin-4-yl]oxy-1-piperidyl]phenyl]piperazin-1-yl]nonyl]-2-pyridyl]methylamino]-2-(2,6-dioxo-3-piperidyl)isoindoline-1,3-dione] |
| 103 nM | 29% | Nc1nnc(-c2ccccc2O)cc1OC1CCCN(c2ccc(N3CCN(CCCCCCCCCn4cc(CCCNc5cccc6c5C(=O)N(C5CCC(=O)NC5=O)C6=O)nn4)CC3)cc2)C1 (centres unmarked) [Example 109, 4-[3-[1-[9-[4-[4-[3-[3-amino-6-(2-hydroxyphenyl)pyridazin-4-yl]oxy-1-piperidyl]phenyl]piperazin-1-yl]nonyl]triazol-4-yl]propylamino]-2-(2,6-dioxo-3-piperidyl)isoindoline-1,3-dione] |
| 123 nM | 54% | Nc1nnc(-c2ccccc2O)cc1N1CCC(C(=O)N2CCC(C(=O)N3CCN(Cc4ccc5c(c4)C(=O)N(C4CCC(=O)NC4=O)C5=O)CC3)CC2)(c2ccccc2)CC1 (centres unmarked) [Example 174, 5-((4-(1-(1-(3-amino-6-(2-hydroxyphenyl)pyridazin-4-yl)-4-phenylpiperidine-4-carbonyl)piperidine-4-carbonyl)piperazin-1-yl)methyl)-2-(2,6-dioxopiperidin-3-yl)isoindoline-1,3-dione] |
| – | 26% | Nc1nnc(-c2ccccc2O)cc1N1CCN(c2cccc(CN3CCN(C(=O)C4CCN(c5ccc6c(c5)C(=O)N(C5CCC(=O)NC5=O)C6=O)CC4)CC3)c2)C2(CC2)C1 (centres unmarked) [Example 127, 5-(4-(4-(3-(7-(3-amino-6-(2-hydroxyphenyl)pyridazin-4-yl)-4,7-diazaspiro[2.5]octan-4-yl)benzyl)piperazine-1-carbonyl)piperidin-1-yl)-2-(2,6-dioxopiperidin-3-yl)isoindoline-1,3-dione] |
| 82 nM | 52% | Nc1nnc(-c2cc(F)ccc2O)cc1OC1CCCN(c2ccc(N3CCN(C(=O)CCCCCCCCn4cc(CNc5cccc6c5C(=O)N(C5CCC(=O)NC5=O)C6=O)nn4)CC3)cc2)C1 (centres unmarked) [Example 64, 4-[[1-[9-[4-[4-[3-[3-amino-6-(5-fluoro-2-hydroxy-phenyl)pyridazin-4-yl]oxy-1-piperidyl]phenyl]piperazin-1-yl]-9-oxo-nonyl]triazol-4-yl]methylamino]-2-(2,6-dioxo-3-piperidyl)isoindoline-1,3-dione] |
| 201 nM | 55% | Nc1nnc(-c2ccccc2O)cc1N1CC(Oc2ccc(CN3CCN(C(=O)CCCCCCCCCNc4cccc5c4C(=O)N(C4CCC(=O)NC4=O)C5=O)CC3)cc2)C1 (centres unmarked) [Example 68, 4-[[10-[4-[[4-[1-[3-amino-6-(2-hydroxyphenyl)pyridazin-4-yl]azetidin-3-yl]oxyphenyl]methyl]piperazin-1-yl]-10-oxo-decyl]amino]-2-(2,6-dioxo-3-piperidyl)isoindoline-1,3-dione] |
| 65 nM | 50% | Nc1nnc(-c2ccccc2O)cc1OC1CCCN(c2ccc(N3CCN(C(=O)CCCCCCCCn4cc(CNc5cccc6c5C(=O)N(C5CCC(=O)NC5=O)C6=O)nn4)CC3)cc2)C1 (centres unmarked) [Example 3, 4-[[1-[9-[4-[4-[3-[3-amino-6-(2-hydroxyphenyl)pyridazin-4-yl]oxy-1-piperidyl]phenyl]piperazin-1-yl]-9-oxo-nonyl]triazol-4-yl]methylamino]-2-(2,6-dioxo-3-piperidyl)isoindoline-1,3-dione] |
| 59 nM | 37% | Nc1nnc(-c2ccccc2O)cc1N1CCC(C(=O)NCC2CCN(C(=O)C3CCN(c4ccc5c(c4)C(=O)N(C4CCC(=O)NC4=O)C5=O)CC3)CC2)(c2ccccc2)CC1 (centres unmarked) [Example 86, 1-[3-amino-6-(2-hydroxyphenyl)pyridazin-4-yl]-N-[[1-[1-[2-(2,6-dioxo-3-piperidyl)-1,3-dioxo-isoindolin-5-yl]piperidine-4-carbonyl]-4-piperidyl]methyl]-4-phenyl-piperidine-4-carboxamide] |
| 182 nM | 63% | Nc1nnc(-c2ccccc2O)cc1OCC(CNC(=O)CN1CCC(c2ccc(OC3CCC(=O)NC3=O)cc2)CC1)c1ccccc1 (racemic) [Example 98, N-[3-[3-amino-6-(2-hydroxyphenyl)pyridazin-4-yl]oxy-2-phenyl-propyl]-2-[4-[4-[(2,6-dioxo-3-piperidyl)oxy]phenyl]-1-piperidyl]acetamide;2,2,2-trifluoroacetic acid (racemic mixture of diastereomers)] |

| Structure (SMILES) | DC50 | Emax |
| --- | --- | --- |
| Nc1nnc(-c2ccccc2O)cc1N1CC2CCC(C1)N2c1cccc(CC2CCN(C(=O)C3CCN(c4ccc5c(c4)C(=O)N(C4CCC(=O)NC4=O)C5=O)CC3)CC2)c1 (racemic) [Example 70, rac-5-[4-[4-[[3-[3-[3-amino-6-(2-hydroxyphenyl)pyridazin-4-yl]-3,8-diazabicyclo[3.2.1]octan-8-yl]phenyl]methyl]piperidine-1-carbonyl]-1-piperidyl]-2-(2,6-dioxo-3-piperidyl)isoindoline-1,3-dione] | 40 nM | 42% |
| Nc1nnc(-c2ccccc2O)cc1N1CC2CCC(C1)N2c1cccc(CN2CCC(C(=O)N3CCC(Oc4ccc5c(c4)C(=O)N(C4CCC(=O)NC4=O)C5=O)CC3)CC2)c1 (racemic) [Example 96, rac-5-[[1-[1-[[3-[3-[3-amino-6-(2-hydroxyphenyl)pyridazin-4-yl]-3,8-diazabicyclo[3.2.1]octan-8-yl]phenyl]methyl]piperidine-4-carbonyl]-4-piperidyl]oxy]-2-(2,6-dioxo-3-piperidyl)isoindoline-1,3-dione] | 7 nM | 27% |
| Nc1nnc(-c2ccccc2O)cc1N1CC2CCC(C1)N2c1cccc(OCCN2CCN(C(=O)COc3ccc4c(c3)C(=O)N(C3CCC(=O)NC3=O)C4=O)CC2)c1 (racemic) [Example 99, rac-5-[2-[4-[2-[3-[3-[3-amino-6-(2-hydroxyphenyl)pyridazin-4-yl]-3,8-diazabicyclo[3.2.1]octan-8-yl]phenoxy]ethyl]piperazin-1-yl]-2-oxo-ethoxy]-2-(2,6-dioxo-3-piperidyl)isoindoline-1,3-dione] | 31 nM | 51% |
| Nc1nnc(-c2ccccc2O)cc1N1CC2CCC(C1)N2c1cccc(OCCN2CCN(C(=O)CCC(=O)N3CCC(Oc4ccc5c(c4)C(=O)N(C4CCC(=O)NC4=O)C5=O)CC3)CC2)c1 (racemic) [Example 10, rac-5-[[1-[4-[4-[2-[3-[3-[3-amino-6-(2-hydroxyphenyl)pyridazin-4-yl]-3,8-diazabicyclo[3.2.1]octan-8-yl]phenoxy]ethyl]piperazin-1-yl]-4-oxo-butanoyl]-4-piperidyl]oxy]-2-(2,6-dioxo-3-piperidyl)isoindoline-1,3-dione] | 58 nM | 49% |
| Nc1nnc(-c2ccccc2O)cc1N1CC2CCC(C1)N2c1cccc(CN2CCC(C(=O)NC3CCN(c4ccc5c(c4)C(=O)N(C4CCC(=O)NC4=O)C5=O)CC3)CC2)c1 (racemic) [Example 106, rac-1-[[3-[3-[3-amino-6-(2-hydroxyphenyl)pyridazin-4-yl]-3,8-diazabicyclo[3.2.1]octan-8-yl]phenyl]methyl]-N-[1-[2-(2,6-dioxo-3-piperidyl)-1,3-dioxo-isoindolin-5-yl]-4-piperidyl]piperidine-4-carboxamide] | 23 nM | 26% |
| Nc1nnc(-c2ccccc2O)cc1N1CC2CCC(C1)N2c1cccc(OCCN2CCN(C(=O)N3C[C@@H]4CN(c5ccc6c(c5)C(=O)N(C5CCC(=O)NC5=O)C6=O)C[C@@H]4C3)CC2)c1 (relative stereo) [Example 157, rac-2-(2,6-dioxo-3-piperidyl)-5-[rel-(3aS,6aR)-5-[4-[2-[3-[3-[3-amino-6-(2-hydroxyphenyl)pyridazin-4-yl]-3,8-diazabicyclo[3.2.1]octan-8-yl]phenoxy]ethyl]piperazine-1-carbonyl]-1,3,3a,4,6,6a-hexahydropyrrolo[3,4-c]pyrrol-2-yl]isoindoline-1,3-dione] | 108 nM | 68% |
